System: subjects with pulmonary hypertension
Assay: Systemic blood pressure (noninvasive) and heart rate monitoring during the study
Description: During the study right heart/pulmonary artery hemodynamics were measured as well as noninvasive systemic blood pressure monitoring and simultaneous RV echocardiography. Subjects were tested for the changes in pulmonary vascular resistance (PVR) measured by right heart catheterization and using thermodilution cardiac output measurement at time zero, at times 15, 30 and 45 minutes after completion of each nebulization dose.
Subjects were monitored closely for changes in blood pressure during the study. […] Subjects were continued to be monitored closely every 10 minutes for 2 hours.

[1] = Patient 1, nitrite 45 mg inhaled, 15 min
[2] = Patient 1, nitrite 45 mg inhaled, 30 min
[3] = Patient 1, nitrite 45 mg inhaled, 45 min
[4] = Patient 1, nitrite 45 mg inhaled, 60 min
[5] = Patient 1, nitrite 90 mg inhaled, 15 min
[6] = Patient 1, nitrite 90 mg inhaled, 30 min
[7] = Patient 1, nitrite 90 mg inhaled, 45 min
[8] = Patient 1, nitrite 90 mg inhaled, 60 min
[9] = Patient 2, nitrite 45 mg inhaled, 15 min
[10] = Patient 2, nitrite 45 mg inhaled, 30 min
[11] = Patient 2, nitrite 45 mg inhaled, 45 min
[12] = Patient 2, nitrite 45 mg inhaled, 60 min
[13] = Patient 2, nitrite 90 mg inhaled, 15 min
[14] = Patient 2, nitrite 90 mg inhaled, 30 min
[15] = Patient 2, nitrite 90 mg inhaled, 45 min
[16] = Patient 2, nitrite 90 mg inhaled, 60 min
[17] = Patient 3, nitrite 45 mg inhaled, 15 min
[18] = Patient 3, nitrite 45 mg inhaled, 30 min
[19] = Patient 3, nitrite 45 mg inhaled, 45 min
[20] = Patient 3, nitrite 45 mg inhaled, 60 min
[21] = Patient 3, nitrite 90 mg inhaled, 15 min
[22] = Patient 3, nitrite 90 mg inhaled, 30 min
[23] = Patient 3, nitrite 90 mg inhaled, 45 min
[24] = Patient 3, nitrite 90 mg inhaled, 60 min
[25] = Patient 4, nitrite 45 mg inhaled, 15 min
[26] = Patient 4, nitrite 45 mg inhaled, 30 min
[27] = Patient 4, nitrite 45 mg inhaled, 45 min
[28] = Patient 4, nitrite 45 mg inhaled, 60 min
[29] = Patient 4, nitrite 90 mg inhaled, 15 min
[30] = Patient 4, nitrite 90 mg inhaled, 30 min
[31] = Patient 4, nitrite 90 mg inhaled, 45 min
[32] = Patient 4, nitrite 90 mg inhaled, 60 min
[33] = Patient 5, nitrite 45 mg inhaled, 15 min
[34] = Patient 5, nitrite 45 mg inhaled, 30 min
[35] = Patient 5, nitrite 45 mg inhaled, 45 min
[36] = Patient 5, nitrite 45 mg inhaled, 60 min
[37] = Patient 5, nitrite 90 mg inhaled, 15 min
[38] = Patient 5, nitrite 90 mg inhaled, 30 min
[39] = Patient 5, nitrite 90 mg inhaled, 45 min
[40] = Patient 5, nitrite 90 mg inhaled, 60 min
[41] = at the doses tested (45 mg and 90 mg inhaled)

SMILES: O=NO [nitrite, sodium nitrite]
- HR [1]: 81
- Systemic DBP [1]: 71
- Systemic SBP [1]: 109
- Systemic mBP [1]: 83.68
- HR [2]: 83
- Systemic DBP [2]: 78
- Systemic SBP [2]: 108
- Systemic mBP [2]: 88.01
- HR [3]: 82
- Systemic DBP [3]: 72
- Systemic SBP [3]: 109
- Systemic mBP [3]: 84.34
- HR [4]: 88
- Systemic DBP [4]: 78
- Systemic SBP [4]: 108
- Systemic mBP [4]: 88.01
- HR [5]: 93
- Systemic DBP [5]: 67
- Systemic SBP [5]: 97
- Systemic mBP [5]: 77.01
- HR [6]: 93
- Systemic DBP [6]: 66
- Systemic SBP [6]: 102
- Systemic mBP [6]: 78.01
- HR [7]: 94
- Systemic DBP [7]: 62
- Systemic SBP [7]: 102
- Systemic mBP [7]: 75.34
- HR [8]: 92
- Systemic DBP [8]: 67
- Systemic SBP [8]: 105
- Systemic mBP [8]: 79.68
- HR [9]: 74
- Systemic DBP [9]: 82
- Systemic SBP [9]: 136
- Systemic mBP [9]: 100.01
- HR [10]: 73
- Systemic DBP [10]: 75
- Systemic SBP [10]: 137
- Systemic mBP [10]: 95.68
- HR [11]: 75
- Systemic DBP [11]: 75
- Systemic SBP [11]: 137
- Systemic mBP [11]: 95.68
- HR [12]: 77
- Systemic DBP [12]: 68
- Systemic SBP [12]: 132
- Systemic mBP [12]: 89.34
- HR [13]: 74
- Systemic DBP [13]: 76
- Systemic SBP [13]: 142
- Systemic mBP [13]: 98.01
- HR [14]: 74
- Systemic DBP [14]: 77
- Systemic SBP [14]: 132
- Systemic mBP [14]: 95.34
- HR [15]: 76
- Systemic DBP [15]: 81
- Systemic SBP [15]: 141
- Systemic mBP [15]: 101.01
- HR [16]: 77
- Systemic DBP [16]: 78
- Systemic SBP [16]: 143
- Systemic mBP [16]: 99.68
- HR [17]: 63
- Systemic DBP [17]: 55
- Systemic SBP [17]: 96
- Systemic mBP [17]: 68.67
- HR [18]: 51
- Systemic DBP [18]: 56
- Systemic SBP [18]: 95
- Systemic mBP [18]: 69.01
- HR [19]: 67
- Systemic DBP [19]: 59
- Systemic SBP [19]: 92
- Systemic mBP [19]: 70.01
- HR [20]: 63
- Systemic DBP [20]: 52
- Systemic SBP [20]: 106
- Systemic mBP [20]: 70.01
- HR [21]: 68
- Systemic DBP [21]: 54
- Systemic SBP [21]: 100
- Systemic mBP [21]: 69.34
- HR [22]: 71
- Systemic DBP [22]: 58
- Systemic SBP [22]: 102
- Systemic mBP [22]: 72.68
- HR [23]: 70
- Systemic DBP [23]: 54
- Systemic SBP [23]: 100
- Systemic mBP [23]: 69.34
- HR [24]: 72
- Systemic DBP [24]: 59
- Systemic SBP [24]: 103
- Systemic mBP [24]: 73.68
- HR [25]: 72
- Systemic DBP [25]: 73
- Systemic SBP [25]: 137
- Systemic mBP [25]: 94.34
- HR [26]: 69
- Systemic DBP [26]: 77
- Systemic SBP [26]: 134
- Systemic mBP [26]: 96.01
- HR [27]: 72
- Systemic DBP [27]: 71
- Systemic SBP [27]: 134
- Systemic mBP [27]: 92.01
- HR [28]: 71
- Systemic DBP [28]: 71
- Systemic SBP [28]: 131
- Systemic mBP [28]: 91.01
- HR [29]: 61
- Systemic DBP [29]: 64
- Systemic SBP [29]: 120
- Systemic mBP [29]: 82.68
- HR [30]: 70
- Systemic DBP [30]: 68
- Systemic SBP [30]: 126
- Systemic mBP [30]: 87.34
- HR [31]: 63
- Systemic DBP [31]: 63
- Systemic SBP [31]: 121
- Systemic mBP [31]: 82.34
- HR [32]: 63
- Systemic DBP [32]: 66
- Systemic SBP [32]: 129
- Systemic mBP [32]: 87.01
- HR [33]: 58
- Systemic DBP [33]: 49
- Systemic SBP [33]: 91
- Systemic mBP [33]: 63.01
- HR [34]: 53
- Systemic DBP [34]: 52
- Systemic SBP [34]: 95
- Systemic mBP [34]: 66.34
- HR [35]: 65
- Systemic DBP [35]: 52
- Systemic SBP [35]: 98
- Systemic mBP [35]: 67.34
- HR [36]: 62
- Systemic DBP [36]: 45
- Systemic SBP [36]: 95
- Systemic mBP [36]: 61.67
- HR [37]: 59
- Systemic DBP [37]: 53
- Systemic SBP [37]: 100
- Systemic mBP [37]: 68.68
- HR [38]: 61
- Systemic DBP [38]: 49
- Systemic SBP [38]: 102
- Systemic mBP [38]: 66.68
- HR [39]: 65
- Systemic DBP [39]: 47
- Systemic SBP [39]: 94
- Systemic mBP [39]: 62.67
- HR [40]: 58
- Systemic DBP [40]: 54
- Systemic SBP [40]: 107
- Systemic mBP [40]: 71.68
- HR (Patient 6, nitrite 45, 15 min): 95
- Systemic DBP (Patient 6, nitrite 45, 15 min): 58
- Systemic SBP (Patient 6, nitrite 45, 15 min): 110
- Systemic mBP (Patient 6, nitrite 45, 15 min): 75.3426
- HR (Patient 6, nitrite 45, 30 min): 99
- Systemic DBP (Patient 6, nitrite 45, 30 min): 65
- Systemic SBP (Patient 6, nitrite 45, 30 min): 127
- Systemic mBP (Patient 6, nitrite 45, 30 min): 85.6773
- HR (Patient 6, nitrite 45, 45 min): 96
- Systemic DBP (Patient 6, nitrite 45, 45 min): 66
- Systemic SBP (Patient 6, nitrite 45, 45 min): 126
- Systemic mBP (Patient 6, nitrite 45, 45 min): 86.0106
- HR (Patient 6, nitrite 45, 60 min): 97
- Systemic DBP (Patient 6, nitrite 45, 60 min): 65
- Systemic SBP (Patient 6, nitrite 45, 60 min): 128
- Systemic mBP (Patient 6, nitrite 45, 60 min): 86.0107
- HR (Patient 6, nitrite 90, 15 min): 93
- Systemic DBP (Patient 6, nitrite 90, 15 min): 59
- Systemic SBP (Patient 6, nitrite 90, 15 min): 112
- Systemic mBP (Patient 6, nitrite 90, 15 min): 76.6761
- HR (Patient 6, nitrite 90, 30 min): 95
- Systemic DBP (Patient 6, nitrite 90, 30 min): 66
- Systemic SBP (Patient 6, nitrite 90, 30 min): 110
- Systemic mBP (Patient 6, nitrite 90, 30 min): 80.6762
- HR (Patient 6, nitrite 90, 45 min): 90
- Systemic DBP (Patient 6, nitrite 90, 45 min): 60
- Systemic SBP (Patient 6, nitrite 90, 45 min): 114
- Systemic mBP (Patient 6, nitrite 90, 45 min): 78.0096
- HR (Patient 6, nitrite 90, 60 min): 91
- Systemic DBP (Patient 6, nitrite 90, 60 min): 58
- Systemic SBP (Patient 6, nitrite 90, 60 min): 111
- Systemic mBP (Patient 6, nitrite 90, 60 min): 75.676
- heart rate [41]: does not significantly affect
- systemic blood pressure [41]: does not significantly affect
